The source of these data is US20150071942A1, “COMBINATION THERAPY OF ANTI-MIF ANTIBODIES AND CHEMOTHERAPEUTICS” (Baxter Healthcare SA, priority 2012, published 2015).

The term EC50 denotes the midpoint of the concentration-response curve.

The test system of assay [1] is A2780 cells. Nature of the assay: Cisplatin-dependent cell killing assay (calcein-AM, flow cytometry). Conditions: in presence of 50 nM RAM0; 48 hours; p<0.01. It counts as cell-based, human. The method, then:
Data are the means±standard deviation of 9 independent experiments.
After 48 hours of incubation cells were detached with Accutase™, labeled with calcein-AM and the level of calcein fluorescence was determined by flow cytometry. The mean fluorescence intensity in the absence of any drug or antibody was set to 1 to normalize for interassay variations. The mean fluorescent intensities were blotted against the cisplatin concentration and the half maximum active concentrations of cisplatin (EC50-values) were calculated.

For assay [2], the system named is A2780 xenografts. Put plainly: A2780 ovarian cancer xenograft in Mf1 nude mice (tumor growth). Conditions: monotherapy; RAM0 15 mg/kg every other day or cisplatin once a week. Type of assay: in vivo, human. The protocol:
Tumor weights are indicated after treatment of inoculated mice with a human control IgG or with RAM0. Antibodies were applied either alone or in combination with cisplatin.
This effect is of high relevance, in particular if it can also be observed in vivo. This was explored in female Mf1 nude mice inoculated with A2780 xenografts (FIG. 5). Mice (n=10/group) were inoculated with 1*10^6 A2780 cells resuspended in matrigel. […] Cisplatin was administered once a week starting on day 2 after xenograft inoculation.
(In general: In xenograft studies the graft and the host belong to different species.)

Assay [3] relates to A2780adr ovarian cancer cells. Nature of the assay: Induction of apoptosis (caspase 3 activity) in doxorubicin-resistant ovarian cancer cells. Conditions: agent alone; 72 hours of treatment. It counts as cell-based, human. The protocol: The percentage increased caspase 3 activity over non-treated cells is indicated. Cells were treated with a human isotype control IgG (Control IgG), anti-MIF antibody RAM0 or RAM9 alone, a combination of control IgG and doxorubicin (Control IgG+Dox), doxorubicin alone (Dox) or a combination of anti-MIF antibody and doxorubicin (RAM0+Dox or RAM9+Dox).
The induction of apoptosis was assessed by detection of caspase 3 activity after 72 hours of treatment.

For assay [4], the system named is Colo357 human pancreatic cancer cell line. Nature of the assay: Orthotopic Colo357 xenograft model for pancreatic cancer in nude mice (survival, tumor volume, microvessel density). It counts as in vivo. Conditions: monotherapy. The method, then:
Control groups were left untreated or were treated with gemcitabine alone (Gem) or a control human monoclonal antibody alone (Control) or with a control human monoclonal antibody in combination with gemcitabine (Control+Gem). (A) Survival curves representing the points in time when animals had to be sacrificed in accordance with UK Home Office Guidance. (B) Tumor volume was measured in as subset of animals after animals had been sacrificed on day 20 after cell implantation. (C) After treatment, mice bearing a Colo357 xenograft were injected i.v. with the FITC-conjugated tomato lectin to visualize the blood vessels on day 12. Microvessel density was quantified using ImagePro Plus software (Image-Pro plus, Media Cybernetics) and vessel density was expressed as the mean percentage of total surface area.
CD1-Foxn1/nu nude mice are orthotopically inoculated with 1×10^5 Colo357 cells (injection of 30 μl matrigel:tumor cell suspension into the pancreas) and the tumor was allowed to establish for 7 days. […]
We further analyzed […] vessel density in a small cohort of animals. […] Cell nuclei were stained using propidium iodide, and vessels were visualized using confocal microscopy (Zeiss LSM 510 META), and microvessel density was quantified using ImagePro Plus software (Image-Pro plus, Media Cybernetics). Vessel density was expressed as the mean

The test system of assay [5] is BxPC3 human pancreatic cancer cells. Put plainly: Orthotopic BxPC3 xenograft model for pancreatic cancer in nude mice (survival). It counts as in vivo. To be noted: monotherapy, gemcitabine 100 mg/kg or RAM9 60 mg/kg alone. The protocol: Control groups were left untreated (left and right panel, dotted black line) or were treated with a control human monoclonal antibody (Control IgG, left panel, solid grey line) or with gemcitabine alone (Gemcitabine, left panel, solid black line). The survival curves represent the points in time when animals had to be sacrificed in accordance with UK Home Office Guidance.
BxPC3 cells are derived from a human pancreatic adenocarcinoma and grow inside the pancreas once they have been injected orthotopically in nude mice and present as a solid tumor. CD1-Foxn1/nu nude mice are orthotopically inoculated with 1×10^6 BxPC3 cells (injection of 30 μl matrigel:tumor cell suspension into the pancreas) and the tumor was allowed to establish for 7 days. […] Additional control groups were left untreated or received a control human IgG1 monoclonal antibody. The growth of internal tumors was judged by external signs (e.g. abdominal distension causing more than 20% increase in normal body weight, or a 20% loss in normal body weight) or clinical signs (e.g. dyspnoea, jaundice, neurological signs, digestive disturbances). Animals reaching the home office limit according to the UK home office guidance were sacrificed (for animal welfare reasons). The resulting survival curve was used as primary outcome of the study.

The subject of assay [6] is LnCAP cells. Nature of the assay: Mitoxantrone-dependent cell killing assay (calcein-AM, flow cytometry). Type of assay: cell-based, human. Conditions: for EC50: Homo sapiens, LNCaP, 48 h, n=10. The protocol:
The single values as well as the mean±standard deviation of 10 independent experiments are shown.
After 48 hours of incubation cells were detached with Accutase™, labeled with calcein-AM and the level of calcein fluorescence was determined by flow cytometry. The mean fluorescence intensity in the absence of any drug or antibody was set to 1 to normalize for interassay variations. The mean fluorescent intensities were plotted against the mitoxantrone concentration and the half maximum active concentrations of mitoxantrone (EC50-values) were calculated.

`N.N.[Cl][Pt][Cl]` [Cisplatin, reference compound]: the EC50-value of cisplatin result in assay [1] is on record as “reduced significantly”. In assay [2], the tumor growth entry was “did not have any effect on tumor growth”.
As to `COc1cccc2c1C(=O)c1c(O)c3c(c(O)c1C2=O)C[C@@](O)(C(=O)CO)C[C@@H]3O[C@H]1C[C@H](N)[C@H](O)[C@H](C)O1` [Doxorubicin, reference compound], in assay [3], the “caspase 3 activity” value is listed as “significant but minor enhanced caspase 3 activity”.
As to `Nc1ccn([C@@H]2O[C@H](CO)[C@@H](O)C2(F)F)c(=O)n1` [Gemcitabine, reference compound], the “blood vessel density in the tumour microenvironment” value in assay [4] (day 12, FITC-conjugated tomato lectin) is listed as “Neither gemcitabine nor RAM0 have a significant effect”. Also, the survival entry in assay [4] (gemcitabine 100 mg/kg or RAM0 60 mg/kg alone, i.p., Colo357 in nude mice) is “only prolonged survival to a marginal and statistically insignificant extent”. The “survival of the xenografted mice” value in assay [5] is “only marginally prolonged the survival”.
Turning to `O=C1c2c(O)ccc(O)c2C(=O)c2c(NCCNCCO)ccc(NCCNCCO)c21` [mitoxantrone, Mitoxantrone], the EC50 in assay [6] (in presence of 100 nM RAM0) was 0.97 nM; in assay [6] (mitoxantrone alone), 1.6 nM. In addition, the “mean EC50 of mitoxantrone” value in assay [6] (in presence of 100 nM human isotype control antibody, compared to mitoxantrone alone) was “identical mean EC50”.
